Source: US20260232673A1, “ISOINDOLINONE GLUTARIMIDE AND PHENYL GLUTARIMIDE ANALOGS AS DEGRADERS OF RET KINASE” (Bristol-Myers Squibb Company, priority 2023, published 2026)

Biological target: T1, CCDC6-RET fusion (Homo sapiens, UniProt P07949+Q16204+Q96SW2)
T1 construct: CCDC6 (N-terminal fusion partner from the natural gene rearrangement, Q16204); endogenous in cells; host or cells: TPC-1 (parental) papillary thyroid carcinoma cells
Test: Cellular RET degradation assay (AlphaLISA Surefire Ultra, TPC-1 cells)
Assay type: cell-based
Settings: half-maximal degradation concentration (DC50); parental TPC-1/CCDC6-RET cell line; 24 hrs compound treatment; AlphaLISA luminescence; read-out: Cell Density TPC-1/CCDC6-RET IC50
Experimental: Cellular RET degradation compound potency was determined using the bead-based luminescent amplification assay—AlphaLISA Surefire Ultra Detection Kit (Perkin-Elmer). The CCDC6-RET fusion expressing papillary thyroid carcinoma (TPC-1) cell line was selected for screening of potential degraders: Parental (TPC-1/CCDC6-RET). Cells were plated in 384 well culture plates (Greiner Bio-One) at 10,000 cells/well in 50 ul/well DMEM (Fisher Scientific) with 2% FBS serum (Gibco). […] Low normalization wells were media only and high normalization wells were cells treated with DMSO only. Treated cell plates were placed in an incubator at 37C and 5% CO2 for 24 hrs. At 24 hrs, cell media was removed by a FELIX automated liquid hander (Analytik Jena) and 25 ul of cell lysis buffer (provided in AlphaLisa kit) was added to each well. 5 ul cell lysate were transferred into a 384-well microplate (Perkin Elmer) before addition of 2.5 ul AlphaLISA Acceptor Bead mix. The plates were sealed and kept at room temperature for 1 hr before addition of donor bead mixture. Donor bead addition was performed in the dark and incubated for >1 hr before AlphaLISA luminescence was measured on an Envision plate reader with an Alphascreen aperture at RT (excitation 680 nm, emission 615 nm). RET protein abundance (and therefore degradation) directly corresponds to luminescence intensity.
Intensities were normalized relative to the average values from 16 wells containing media alone (blank-low) and 16 wells containing cells+DMSO (high). % Degradation for each well was determined using the standard equation, where
DC50 (IC50) values for each compound tested are calculated by analyzing plots of % degradation versus compound concentration, and fitting to the standard 4-parameter logistic curve where,
Top and bottom are the % degradation at infinitely large and infinitely small compound concentrations, respectively, while Halfmax is the compound concentration yielding % degradation corresponding to ½ Top-Bottom, and N is the Hill coefficient. DC50 values are calculated according to the relationship,
Compound replicates were performed in independent assays. Maximum degradation (YMax) was defined as the maximal % degradation value from the 4-parameter logistic equation, as previously described.

T1 sequence (Q16204+P07949 fused): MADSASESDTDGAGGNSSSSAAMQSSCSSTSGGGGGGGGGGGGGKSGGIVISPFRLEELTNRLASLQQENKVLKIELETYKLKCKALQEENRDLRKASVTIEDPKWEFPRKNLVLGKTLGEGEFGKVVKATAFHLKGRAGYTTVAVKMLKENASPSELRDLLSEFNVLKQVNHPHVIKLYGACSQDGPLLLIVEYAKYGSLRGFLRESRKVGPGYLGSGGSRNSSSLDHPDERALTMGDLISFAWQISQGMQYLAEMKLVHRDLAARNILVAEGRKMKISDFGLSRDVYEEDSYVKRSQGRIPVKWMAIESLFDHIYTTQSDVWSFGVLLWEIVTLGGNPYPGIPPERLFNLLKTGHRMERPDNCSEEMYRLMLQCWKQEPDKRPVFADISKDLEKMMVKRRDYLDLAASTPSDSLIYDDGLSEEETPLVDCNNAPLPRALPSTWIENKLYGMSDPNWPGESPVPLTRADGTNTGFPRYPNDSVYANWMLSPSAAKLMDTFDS
T1 sequence (Q96SW2 whole entry, the tested form may be a part): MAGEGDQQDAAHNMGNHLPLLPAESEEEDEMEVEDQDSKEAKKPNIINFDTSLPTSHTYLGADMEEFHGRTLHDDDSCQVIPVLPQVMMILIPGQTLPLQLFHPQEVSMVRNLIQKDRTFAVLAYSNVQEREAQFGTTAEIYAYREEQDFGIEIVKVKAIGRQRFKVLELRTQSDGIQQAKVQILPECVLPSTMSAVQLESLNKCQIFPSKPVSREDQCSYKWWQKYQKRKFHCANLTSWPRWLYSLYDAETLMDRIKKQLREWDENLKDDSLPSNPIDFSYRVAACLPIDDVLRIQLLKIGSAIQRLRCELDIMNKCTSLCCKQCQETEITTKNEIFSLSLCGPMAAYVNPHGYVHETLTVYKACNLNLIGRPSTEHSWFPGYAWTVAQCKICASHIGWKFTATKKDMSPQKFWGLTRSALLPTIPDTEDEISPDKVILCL

| SMILES | DC50 |
| --- | --- |
| COC1(C(=O)N[C@@H](CCCNC(=O)CCCCCCN2CCN(c3ccc4c(c3)CN(C3CCC(=O)NC3=O)C4=O)CC2)c2ccc(-n3cc(F)cn3)nc2)CCN(c2nc(C)cc(Nc3cc(C)[nH]n3)n2)CC1 (stereo partly drawn) [Example A34, 7-{4-[2-(2,6-dioxopiperidin-3-yl)-1-oxo-2,3-dihydro-1H-isoindol-5-yl]piperazin-1-yl}-N-[(4S)-4-[6-(4-fluoro-1H-pyrazol-1-yl)pyridin-3-yl]-4-[(4-methoxy-1-{4-methyl-6-[(5-methyl-1H-pyrazol-3-yl)amino]pyrimidin-2-yl}piperidin-4-yl)formamido]butyl] heptanamide] | 13.2 nM |
| Nc1ncnc2c1c(-c1noc(C3CC3)c1-c1ccccn1)nn2[C@H]1C[C@H](C(=O)NCCCCN2CCC(c3ccc4c(c3)C(=O)N(C3CCC(=O)NC3=O)C4)CC2)C1 (stereo partly drawn) [Example A8, (1r,3r)-3-{4-amino-3-[5-cyclopropyl-4-(pyridin-2-yl)-1,2-oxazol-3-yl]-1H-pyrazolo[3,4-d]pyrimidin-1-yl}-N-(4-{4-[2-(2,6-dioxopiperidin-3-yl)-3-oxo-2,3-dihydro-1H-isoindol-5-yl]piperidin-1-yl}butyl)cyclobutane-1-carboxamide] | 17.4 nM |
| CC(C)n1nc(-c2noc(C3CC3)c2-c2cn(C3CCN(C(=O)CCCCN4CCC(c5ccc6c(c5)C(=O)N(C5CCC(=O)NC5=O)C6)CC4)CC3)cn2)c2c(N)ncnc21 (stereo not drawn) [Example A17, 3-[6-(1-{5-[4-(4-{3-[4-amino-1-(propan-2-yl)-1H-pyrazolo[3,4-d]pyrimidin-3-yl]-5-cyclopropyl-1,2-oxazol-4-yl}-1H-imidazol-1-yl)piperidin-1-yl]-5-oxopentyl}piperidin-4-yl)-1-oxo-2,3-dihydro-1H-isoindol-2-yl]piperidine-2,6-dione] | 43.2 nM |
| Nc1ncnc2c1c(-c1noc(C3CC3)c1-c1ccccn1)nn2[C@H]1C[C@H](C(=O)NCCCCN2CCN(c3ccc4c(c3)C(=O)N(C3CCC(=O)NC3=O)C4)CC2)C1 (stereo partly drawn) [Example A6, (1r,3r)-3-{4-amino-3-[5-cyclopropyl-4-(pyridin-2-yl)-1,2-oxazol-3-yl]-1H-pyrazolo[3,4-d]pyrimidin-1-yl}-N-(4-{4-[2-(2,6-dioxopiperidin-3-yl)-3-oxo-2,3-dihydro-1H-isoindol-5-yl]piperazin-1-yl}butyl) cyclobutane-1-carboxamide] | 6.42 nM |
| CC(C)n1nc(-c2noc(C3CC3)c2C2CCN(C(=O)CCCCCCN3CCN(c4ccc5c(c4)C(=O)N(C4CCC(=O)NC4=O)C5)CC3)CC2)c2c(N)ncnc21 (stereo not drawn) [Example A19, 3-(6-{4-[7-(4-{3-[4-amino-1-(propan-2-yl)-1H-pyrazolo[3,4-d]pyrimidin-3-yl]-5-cyclopropyl-1,2-oxazol-4-yl}piperidin-1-yl)-7-oxoheptyl]piperazin-1-yl}-1-oxo-2,3-dihydro-1H-isoindol-2-yl)piperidine-2,6-dione] | 27.8 nM |
| Nc1ncnc2c1c(-c1noc(C3CC3)c1-c1ccccn1)nn2[C@H]1C[C@H](C(=O)NCCCCCCN2CCC(c3ccc4c(c3)CN(C3CCC(=O)NC3=O)C4=O)CC2)C1 (stereo partly drawn) [Example A5, (1r,3r)-3-{4-amino-3-[5-cyclopropyl-4-(pyridin-2-yl)-1,2-oxazol-3-yl]-1H-pyrazolo[3,4-d]pyrimidin-1-yl}-N-(6-{4-[2-(2,6-dioxopiperidin-3-yl)-1-oxo-2,3-dihydro-1H-isoindol-5-yl]piperidin-1-yl}hexyl)cyclobutane-1-carboxamide] | 9.27 nM |
| Nc1ncnc2c1c(-c1noc(C3CC3)c1-c1ccccn1)nn2[C@H]1C[C@H](C(=O)NCCCCN2CCN(c3ccc4c(c3)CN(C3CCC(=O)NC3=O)C4=O)CC2)C1 (stereo partly drawn) [Example A2, (1r,3r)-3-{4-amino-3-[5-cyclopropyl-4-(pyridin-2-yl)-1,2-oxazol-3-yl]-1H-pyrazolo[3,4-d]pyrimidin-1-yl}-N-(4-{4-[2-(2,6-dioxopiperidin-3-yl)-1-oxo-2,3-dihydro-1H-isoindol-5-yl]piperazin-1-yl}butyl)cyclobutane-1-carboxamide] | 3.17 nM |
| Nc1ncnc2c1c(-c1noc(C3CC3)c1-c1ccccn1)nn2[C@H]1C[C@H](C(=O)NCCCCCCN2CCC(c3ccc4c(c3)C(=O)N(C3CCC(=O)NC3=O)C4)CC2)C1 (stereo partly drawn) [Example A9, (1r,3r)-3-{4-amino-3-[5-cyclopropyl-4-(pyridin-2-yl)-1,2-oxazol-3-yl]-1H-pyrazolo[3,4-d]pyrimidin-1-yl}-N-(6-{4-[2-(2,6-dioxopiperidin-3-yl)-3-oxo-2,3-dihydro-1H-isoindol-5-yl]piperidin-1-yl}hexyl)cyclobutane-1-carboxamide] | 22 nM |
| CC(C)n1nc(-c2noc(C3CC3)c2-c2cn(C3CCN(C(=O)CCCCCCN4CCC(c5ccc6c(c5)CN(C5CCC(=O)NC5=O)C6=O)CC4)CC3)cn2)c2c(N)ncnc21 (stereo not drawn) [Example A14, 3-[5-(1-{7-[4-(4-{3-[4-amino-1-(propan-2-yl)-1H-pyrazolo[3,4-d]pyrimidin-3-yl]-5-cyclopropyl-1,2-oxazol-4-yl}-1H-imidazol-1-yl)piperidin-1-yl]-7-oxoheptyl}piperidin-4-yl)-1-oxo-2,3-dihydro-1H-isoindol-2-yl]piperidine-2,6-dionc] | 2.02 nM |
| Nc1ncnc2c1c(-c1noc(C3CC3)c1-c1ccccn1)nn2[C@H]1C[C@H](C(=O)NCCCCCCN2CCN(c3ccc4c(c3)C(=O)N(C3CCC(=O)NC3=O)C4)CC2)C1 (stereo partly drawn) [Example A7, (1r,3r)-3-{4-amino-3-[5-cyclopropyl-4-(pyridin-2-yl)-1,2-oxazol-3-yl]-1H-pyrazolo[3,4-d]pyrimidin-1-yl}-N-(6-{4-[2-(2,6-dioxopiperidin-3-yl)-3-oxo-2,3-dihydro-1H-isoindol-5-yl]piperazin-1-yl}hexyl) cyclobutane-1-carboxamide] | 5.32 nM |
| CC(C)n1nc(-c2noc(C3CC3)c2-c2cn(C3CCN(C(=O)CCCCCCN4CCN(c5ccc6c(c5)CN(C5CCC(=O)NC5=O)C6=O)CC4)CC3)cn2)c2c(N)ncnc21 (stereo not drawn) [Example A12, 3-[5-(4-{7-[4-(4-{3-[4-amino-1-(propan-2-yl)-1H-pyrazolo[3,4-d]pyrimidin-3-yl]-5-cyclopropyl-1,2-oxazol-4-yl}-1H-imidazol-1-yl)piperidin-1-yl]-7-oxoheptyl}piperazin-1-yl)-1-oxo-2,3-dihydro-1H-isoindol-2-yl]piperidine-2,6-dione] | 1.77 nM |
| Nc1ncnc2c1c(-c1noc(C3CC3)c1-c1ccccn1)nn2[C@H]1C[C@H](C(=O)NCCCCN2CCC(c3ccc4c(c3)CN(C3CCC(=O)NC3=O)C4=O)CC2)C1 (stereo partly drawn) [Example A4, (1r,3r)-3-{4-amino-3-[5-cyclopropyl-4-(pyridin-2-yl)-1,2-oxazol-3-yl]-1H-pyrazolo[3,4-d]pyrimidin-1-yl}-N-(4-{4-[2-(2,6-dioxopiperidin-3-yl)-1-oxo-2,3-dihydro-1H-isoindol-5-yl]piperidin-1-yl}butyl) cyclobutane-1-carboxamide] | 6.51 nM |
| Nc1ncnc2c1c(-c1noc(C3CC3)c1-c1ccccn1)nn2[C@H]1C[C@H](C(=O)NCCN2CCC(c3ccc4c(c3)CN(C3CCC(=O)NC3=O)C4=O)CC2)C1 (stereo partly drawn) [Example A3, (1r,3r)-3-{4-amino-3-[5-cyclopropyl-4-(pyridin-2-yl)-1,2-oxazol-3-yl]-1H-pyrazolo[3,4-d]pyrimidin-1-yl}-N-(2-{4-[2-(2,6-dioxopiperidin-3-yl)-1-oxo-2,3-dihydro-1H-isoindol-5-yl]piperidin-1-yl}ethyl)cyclobutane-1-carboxamide] | 10.2 nM |
| COC1(C(=O)N[C@@H](CCCNC(=O)CCCCCCCCNc2cccc(C3CCC(=O)NC3=O)c2)c2ccc(-n3cc(F)cn3)nc2)CCN(c2nc(C)cc(Nc3cc(C)[nH]n3)n2)CC1 (stereo partly drawn) [Example A29] | 4.88 nM |
| Nc1ncnc2c1c(-c1noc(C3CC3)c1-c1ccccn1)nn2[C@H]1C[C@H](C(=O)NCCCCNc2ccc(C3CCC(=O)NC3=O)cc2)C1 (stereo partly drawn) [Example A11, (1r,3r)-3-{4-amino-3-[5-cyclopropyl-4-(pyridin-2-yl)-1,2-oxazol-3-yl]-1H-pyrazolo[3,4-d]pyrimidin-1-yl}-N-(4-{[4-(2,6-dioxopiperidin-3-yl)phenyl]amino}butyl) cyclobutane-1-carboxamide] | 57.6 nM |
